Measurements: US20250170141A1, “MRGPRX2 MODULATORS AND RELATED METHODS OF TREATMENT” (Escient Pharmaceuticals, Inc., priority 2023, published 2025)

Each molecule was assayed against T1, human MRGPRX2 (Homo sapiens, UniProt Q96LB1) (assay: MRGPRX2 activity: IP-One Gq HTRF assay in CHO cells, antagonism versus 0.3 uM Cortistatin-14). Conditions: versus 0.3 uM Cortistatin-14 agonist, CHO cells expressing human MRGPRX2, read-out: MRGPRX2 Antagonist Activity.
T1 construct: expressed in transfected cells; host or cells: CHO cells, stably transfected (G418 and Hygromycin B selection)
T1 sequence (Q96LB1 1-330): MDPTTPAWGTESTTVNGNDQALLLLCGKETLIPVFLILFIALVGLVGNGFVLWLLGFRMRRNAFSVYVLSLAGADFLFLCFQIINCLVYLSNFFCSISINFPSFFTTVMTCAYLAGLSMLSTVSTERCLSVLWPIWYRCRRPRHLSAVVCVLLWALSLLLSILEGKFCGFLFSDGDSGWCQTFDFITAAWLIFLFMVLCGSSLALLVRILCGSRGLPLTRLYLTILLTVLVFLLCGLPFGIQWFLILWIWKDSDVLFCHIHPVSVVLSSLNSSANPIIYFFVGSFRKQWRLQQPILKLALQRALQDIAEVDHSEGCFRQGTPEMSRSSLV
Format: cell-based
Procedure: CHO cells stably transfected to express human MRGPRX2 were maintained in an incubator at 37° C. with 5% CO2 and grown in F12 (HAM) media with 10% fetal bovine serum (FBS), 1% Glutamax, 1% penicillin/streptomycin, 800 μg/mL Geneticin (G418), and 300 μg/mL Hygromycin B.
Cells were plated in a 384-well assay plate at 20,000 cells per well in 12 μL of Opti-MEM and kept in an incubator overnight. On the day of the assay, compounds solubilized at 10 mM in DMSO were added as a 10-point curve (30 uM final top concentration with 1:3 serial dilutions) using a Tecan D300E digital dispenser. Agonists were diluted in assay buffer (final concentrations of 5.7 mM Tris-HCl, 43 mM NaCl, 50 mM LiCl, pH=8) and 2 μL of the agonist Cortistatin-14 (CPC Scientific, catalog CORT-002) are added to each well. Final concentrations of agonists were 0.3 μM Cortistatin. Final concentrations of DMSO were kept consistent across the plate. Plates were incubated in the dark for 1 h at 37° C. and then for 1 h at room temperature. IP-1 standards and HTRF detection reagents were added according to the IP-One—Gq Kit purchased from Cisbio (part number 62IPAPEJ) and incubated in the dark for 1 h at room temperature. The plate was read on a Molecular Devices SpectraMax iD5 plate reader. The HTRF ratio was calculated from the raw data and graphed using GraphPad Prism to calculate an IC50 value for each compound.
The activity ranges are denoted as follows: “+++++” denotes antagonist activity <100 nM; “++++” denotes antagonist activity between 100 and 500 nM; “+++” denotes activity between 501 and 1000 nM; “++” denotes activity between 1001 and 2500 nM; and “+” denotes activity >2500 nM.

IC50 [nM]	SMILES
100 to 500	O=S1(=O)N=C(NCc2cccc(F)c2)Nc2c1cc(F)c(F)c2Cc1ccccc1Cl [Compound 4-12, 5-(2-chlorobenzyl)-6,7-difluoro-3-((3-fluorobenzyl)amino)-4H-benzo[e][1,2,4]thiadiazine 1,1-dioxide]
< 100	Cc1nn(C)cc1C(C)c1c(F)ccc2c1NC(NCc1cccc(F)c1)=NS2(=O)=O (centres unmarked) [Compound 22-19, 5-(1-(1,3-dimethyl-1H-pyrazol-4-yl)ethyl)-6-fluoro-3-((3-fluorobenzyl)amino)-4H-benzo[e][1,2,4]thiadiazine 1,1-dioxide]
< 100	C[C@H](c1ccccc1F)c1c(F)ccc2c1NC(NCc1ccc3c(cnn3C)c1)=NS2(=O)=O [Compound 24-3, (R)-6-fluoro-5-(1-(2-fluorophenyl)ethyl)-3-(((1-methyl-1H-indazol-5-yl)methyl)amino)-4H-benzo[e][1,2,4]thiadiazine 1,1-dioxide]
< 100	[2H]c1ccc2c(c1[C@H](C)c1ccccc1F)NC(NCc1ncccc1F)=NS2(=O)=O [Compound 23-1, (S)-5-(1-(2-fluorophenyl)ethyl)-3-(((3-fluoropyridin-2-yl)methyl)amino)-4H-benzo[e][1,2,4]thiadiazine 1,1-dioxide-6-d]
501 to 1000	COc1ccccc1CNC1=NS(=O)(=O)c2cc(F)c(F)c(Cc3ccccc3Cl)c2N1 [Compound 4-9, 5-(2-chlorobenzyl)-6,7-difluoro-3-((2-methoxybenzyl)amino)-4H-benzo[e][1,2,4]thiadiazine 1,1-dioxide]
< 100	Cc1ccccc1Cc1cccc2c1NC(NCc1ccccc1F)=NS2(=O)=O [Compound 6-7, 3-((2-fluorobenzyl)amino)-5-(2-methylbenzyl)-4H-benzo[e][1,2,4]thiadiazine 1,1-dioxide]
< 100	O=S1(=O)N=C(NCc2cccc(Cl)c2)Nc2c(Cc3ccccc3Cl)cccc21 [Compound 12-16, 5-(2-chlorobenzyl)-3-((3-chlorobenzyl)amino)-4H-benzo[e][1,2,4]thiadiazine 1,1-dioxide]
< 100	O=S1(=O)N=C(NCc2ncccc2F)Nc2c(Cc3ccccc3Cl)cccc21 [Compound 12-2, 5-(2-chlorobenzyl)-3-(((3-fluoropyridin-2-yl)methyl)amino)-4H-benzo[e][1,2,4]thiadiazine 1,1-dioxide]
1000 to 2500	COCCNC1=NS(=O)(=O)c2cccc(C(=O)c3ccccc3Cl)c2N1 [Compound 16-3, (2-chlorophenyl)(3-((2-methoxyethyl)amino)-1,1-dioxido-4H-benzo[e][1,2,4]thiadiazin-5-yl)methanone]
100 to 500	O=C(c1ccccc1Cl)c1c(F)ccc2c1NC(NCc1ncccc1F)=NS2(=O)=O [Compound 16-6, (2-chlorophenyl)(6-fluoro-3-(((3-fluoropyridin-2-yl)methyl)amino)-1,1-dioxido-4H-benzo[e][1,2,4]thiadiazin-5-yl)methanone]
< 100	O=S1(=O)N=C(NCc2ncc(F)cc2F)Nc2c(Cc3ccccc3Cl)cccc21 [Compound 12-10, 5-(2-chlorobenzyl)-3-(((3,5-difluoropyridin-2-yl)methyl)amino)-4H-benzo[e][1,2,4]thiadiazine 1,1-dioxide]
< 100	CC(c1ccccc1F)c1c(F)ccc2c1NC(NCc1ccc(F)c(Cl)c1)=NS2(=O)=O (centres unmarked) [Compound 7-7, 3-((3-chloro-4-fluorobenzyl)amino)-6-fluoro-5-(1-(2-fluorophenyl)ethyl)-4H-benzo[e][1,2,4]thiadiazine 1,1-dioxide]
< 100	O=C(c1ccccc1Cl)c1cccc2c1NC(NCc1ncccc1C(F)(F)F)=NS2(=O)=O [Compound 16-4, (2-chlorophenyl)(1,1-dioxido-3-(((3-(trifluoromethyl)pyridin-2-yl)methyl)amino)-4H-benzo[e][1,2,4]thiadiazin-5-yl)methanone]
< 100	O=S1(=O)N=C(NCc2ccccc2F)Nc2c(CCc3ccccc3)cccc21 [Compound 6-18, 3-((2-fluorobenzyl)amino)-5-phenethyl-4H-benzo[e][1,2,4]thiadiazine 1,1-dioxide]
< 100	O=S1(=O)N=C(NCc2ccncc2Cl)Nc2c(Cc3ccccc3Cl)cccc21 [Compound 12-17, 5-(2-chlorobenzyl)-3-(((3-chloropyridin-4-yl)methyl)amino)-4H-benzo[e][1,2,4]thiadiazine 1,1-dioxide]
< 100	O=S1(=O)N=C(NCc2ccc(Cl)c(Cl)c2)Nc2c(Cc3ccccc3Cl)cccc21 [Compound 12-12, 5-(2-chlorobenzyl)-3-((3,4-dichlorobenzyl)amino)-4H-benzo[e][1,2,4]thiadiazine 1,1-dioxide]
501 to 1000	O=S1(=O)N=C(NCc2cccc3ccccc23)Nc2c1cc(F)c(F)c2Cc1ccccc1Cl [Compound 4-20, 5-(2-chlorobenzyl)-6,7-difluoro-3-((naphthalen-1-ylmethyl)amino)-4H-benzo[e][1,2,4]thiadiazine 1,1-dioxide]
< 100	Cc1cc(F)ccc1CNC1=NS(=O)(=O)c2cccc(Cc3ccccc3Cl)c2N1 [Compound 12-7, 5-(2-chlorobenzyl)-3-((4-fluoro-2-methylbenzyl)amino)-4H-benzo[e][1,2,4]thiadiazine 1,1-dioxide]

Continued, molecule first:

SMILES	IC50 [nM]
O=S1(=O)N=C(NCc2cccc(Cl)c2F)Nc2c1ccc(F)c2Oc1ccccc1Cl [Compound 1-25, 3-((3-chloro-2-fluorobenzyl)amino)-5-(2-chlorophenoxy)-6-fluoro-4H-benzo[e][1,2,4]thiadiazine 1,1-dioxide]	< 100
O=S1(=O)N=C(NCc2ncccc2F)Nc2c1ccc(F)c2Oc1ccc(F)cc1Cl [Compound 1-18, 5-(2-chloro-4-fluorophenoxy)-6-fluoro-3-(((3-fluoropyridin-2-yl)methyl)amino)-4H-benzo[e][1,2,4]thiadiazine 1,1-dioxide]	< 100
O=S1(=O)N=C(NCc2ncccc2F)Nc2c1ccc(F)c2Oc1ccc(Cl)cc1Cl [Compound 1-16, 5-(2,4-dichlorophenoxy)-6-fluoro-3-(((3-fluoropyridin-2-yl)methyl)amino)-4H-benzo[e][1,2,4]thiadiazine 1,1-dioxide]	100 to 500
O=S1(=O)N=C(NCc2ncc(F)cc2F)Nc2c1ccc(F)c2Oc1ccccc1Cl [Compound 1-14, 5-(2-chlorophenoxy)-3-(((3,5-difluoropyridin-2-yl)methyl)amino)-6-fluoro-4H-benzo[e][1,2,4]thiadiazine 1,1-dioxide]	< 100
Cc1ccc(NC2=NS(=O)(=O)c3ccc(F)c(Oc4ccccc4Cl)c3N2)cc1 [Compound 1-13, 5-(2-chlorophenoxy)-6-fluoro-3-(p-tolylamino)-4H-benzo[e][1,2,4]thiadiazine 1,1-dioxide]	> 2500
Cc1c(F)cccc1CNC1=NS(=O)(=O)c2ccc(F)c(Oc3ccccc3Cl)c2N1 [Compound 1-24, 5-(2-chlorophenoxy)-6-fluoro-3-((3-fluoro-2-methylbenzyl)amino)-4H-benzo[e][1,2,4]thiadiazine 1,1-dioxide]	< 100
Cc1ccc2c(c1Oc1ccccc1Cl)NC(NCc1ncccc1F)=NS2(=O)=O [Compound 1-4, 5-(2-chlorophenoxy)-3-(((3-fluoropyridin-2-yl)methyl)amino)-6-methyl-4H-benzo[e][1,2,4]thiadiazine 1,1-dioxide]	< 100
O=S1(=O)N=C(NCc2ncccc2F)Nc2c1ccc(Cl)c2Oc1ccccc1Cl [Compound 1-43, 6-chloro-5-(2-chlorophenoxy)-3-(((3-fluoropyridin-2-yl)methyl)amino)-4H-benzo[e][1,2,4]thiadiazine 1,1-dioxide]	< 100
O=S1(=O)N=C(NCc2cc(F)ccc2F)Nc2c1ccc(F)c2Oc1ccccc1Cl [Compound 1-23, 5-(2-chlorophenoxy)-3-((2,5-difluorobenzyl)amino)-6-fluoro-4H-benzo[e][1,2,4]thiadiazine 1,1-dioxide]	< 100
O=S1(=O)N=C(NCc2ccc(F)cc2F)Nc2c1ccc(F)c2Oc1ccccc1Cl [Compound 1-29, 5-(2-chlorophenoxy)-3-((2,4-difluorobenzyl)amino)-6-fluoro-4H-benzo[e][1,2,4]thiadiazine 1,1-dioxide]	< 100
O=S1(=O)N=C(NCc2ncccc2F)Nc2c1ccc(F)c2Oc1cccc(Cl)c1 [Compound 2-10, 5-(3-chlorophenoxy)-6-fluoro-3-(((3-fluoropyridin-2-yl)methyl)amino)-4H-benzo[e][1,2,4]thiadiazine 1,1-dioxide]	100 to 500
